Experimental data published in US6914045B2, “Glycopeptide antibiotics” (Wyeth Holdings Corporation, priority 2001, dated 2005).

Experiments:
Experiment in all cases: in vitro antibacterial evaluation, MIC by broth dilution
Format in all cases: cell-based
Enterococcus sp. = settings: broth dilution, 18 hours at 35° C.; for MIC Enterococcus faecalis (ATCC 29212): strain ATCC 29212; for MIC Enterococcus faecalis (GC 2242): strain GC 2242; for MIC Enterococcus faecium (GC 2243): strain GC 2243; for MIC Enterococcus faecalis (GC 2691): strain GC 2691; for MIC Enterococcus faecalis (GC 3059): strain GC 3059; for MIC Enterococcus faecalis (GC 4552): strain GC 4552; for MIC Enterococcus faecalis (GC 4553): strain GC 4553; for MIC Enterococcus faecalis (GC 4554): strain GC 4554; for MIC Enterococcus faecium (GC 4556): strain GC 4556; for MIC Enterococcus faecium (GC 4557): strain GC 4557; for MIC Enterococcus avium (GC 4558): strain GC 4558; for MIC Enterococcus faecalis (GC 6189): strain GC 6189
Summary of the method: (§1)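 Following National Committee for Clinical Laboratory Standards recommendations (M7-A2), susceptibility was measured by dilution in Muller-Hinton II […]. Bacteria were seeded at 5×10^5 CFU/mL against compound concentrations from 64 down to 0.06 μg/mL.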

Escherichia coli = system: Escherichia coli
Summary of the method: as §1

Staphylococcus sp. = settings: broth dilution, 18 hours at 35° C.; for MIC Staphylococcus aureus (GC 1131): strain GC 1131
Summary of the method: as §1

Streptococcus sp. = settings: broth dilution, 18 hours at 35° C.; for MIC Streptococcus pneumoniae (ATCC 6301): strain ATCC 6301; for MIC Streptococcus pneumoniae (GC 1894): strain GC 1894; for MIC Streptococcus pyogenes (GC 4563): strain GC 4563; for MIC Streptococcus agalactiae (GC 4564): strain GC 4564; for MIC Streptococcus pneumoniae (GC 4565): strain GC 4565
Summary of the method: as §1

CC(c1ccccc1)C1NC(=O)CNC(=O)C(CO)NC(=O)C(C(O)C2CNC(=N)N2C2OC(CO)C(O)C(O)C2O)NC(=O)C(C(O)C2CNC(=N)N2)NC(=O)C(Cc2ccc(OC3OC(CO)C(OC4OC5COC(c6ccc(Oc7ccc(C(C)(C)C)cc7)cc6)OC5C(O)C4O)C(O)C3O)cc2)NC1=O (centres unmarked) [Example 181]
0.5 µg/mL: MIC Streptococcus pyogenes (GC 4563) (Streptococcus sp.; inoculum 5×10^5 CFU/mL) | MIC Streptococcus pyogenes (GC 4563) (Streptococcus sp.)
4 µg/mL: MIC Enterococcus faecalis (GC 2691) (Enterococcus sp.; inoculum 5×10^5 CFU/mL) | MIC Enterococcus faecalis (GC 3059) (Enterococcus sp.; inoculum 5×10^5 CFU/mL) | MIC Enterococcus faecium (GC 4556) (Enterococcus sp.; inoculum 5×10^5 CFU/mL) | MIC Enterococcus faecium (GC 4557) (Enterococcus sp.; inoculum 5×10^5 CFU/mL) | MIC Enterococcus avium (GC 4558) (Enterococcus sp.; inoculum 5×10^5 CFU/mL) | MIC Enterococcus faecalis (GC 2691) (Enterococcus sp.) | MIC Enterococcus faecalis (GC 3059) (Enterococcus sp.) | MIC Enterococcus faecium (GC 4556) (Enterococcus sp.) | MIC Enterococcus faecium (GC 4557) (Enterococcus sp.) | MIC Enterococcus avium (GC 4558) (Enterococcus sp.) | MIC Staphylococcus aureus (GC 1131) (Staphylococcus sp.; inoculum 5×10^5 CFU/mL) | MIC Staphylococcus aureus (ATCC 29213) (Staphylococcus sp.; strain ATCC 29213) | MIC Staphylococcus aureus (GC 1131) (Staphylococcus sp.) | MIC Staphylococcus aureus (GC 3051) (Staphylococcus sp.; strain GC 3051) | MIC Staphylococcus aureus (GC 3053) (Staphylococcus sp.; strain GC 3053) | MIC Staphylococcus aureus (GC 4541) (Staphylococcus sp.; strain GC 4541) | MIC Staphylococcus aureus (GC 4542) (Staphylococcus sp.; strain GC 4542) | MIC Staphylococcus aureus (GC 4544) (Staphylococcus sp.; strain GC 4544) | MIC Staphylococcus aureus (GC 4545) (Staphylococcus sp.; strain GC 4545) | MIC Staphylococcus aureus-SMITH (GC 4543) (Staphylococcus sp.; strain GC 4543)
2 µg/mL: MIC Enterococcus faecalis (ATCC 29212) (Enterococcus sp.; inoculum 5×10^5 CFU/mL) | MIC Enterococcus faecalis (GC 2242) (Enterococcus sp.; inoculum 5×10^5 CFU/mL) | MIC Enterococcus faecium (GC 2243) (Enterococcus sp.; inoculum 5×10^5 CFU/mL) | MIC Enterococcus faecalis (GC 4552) (Enterococcus sp.; inoculum 5×10^5 CFU/mL) | MIC Enterococcus faecalis (GC 4554) (Enterococcus sp.; inoculum 5×10^5 CFU/mL) | MIC Enterococcus faecalis (GC 6189) (Enterococcus sp.; inoculum 5×10^5 CFU/mL) | MIC Enterococcus faecalis (ATCC 29212) (Enterococcus sp.) | MIC Enterococcus faecalis (GC 2242) (Enterococcus sp.) | MIC Enterococcus faecium (GC 2243) (Enterococcus sp.) | MIC Enterococcus faecalis (GC 4552) (Enterococcus sp.) | MIC Enterococcus faecalis (GC 4554) (Enterococcus sp.) | MIC Enterococcus faecalis (GC 6189) (Enterococcus sp.) | MIC Coagulase Negative Staphylococcus (GC 4548) (Staphylococcus sp.; strain GC 4548) | MIC Coagulase Negative Staphylococcus (GC 4551) (Staphylococcus sp.; strain GC 4551) | MIC Coagulase Negative Staphylococcus (GC 6257) (Staphylococcus sp.; strain GC 6257)
<0.06 µg/mL: MIC Streptococcus pneumoniae (ATCC 6301) (Streptococcus sp.; inoculum 5×10^5 CFU/mL) | MIC Streptococcus pneumoniae (GC 1894) (Streptococcus sp.; inoculum 5×10^5 CFU/mL) | MIC Streptococcus agalactiae (GC 4564) (Streptococcus sp.; inoculum 5×10^5 CFU/mL) | MIC Streptococcus pneumoniae (GC 4565) (Streptococcus sp.; inoculum 5×10^5 CFU/mL) | MIC Streptococcus pneumoniae (ATCC 6301) (Streptococcus sp.) | MIC Streptococcus pneumoniae (GC 1894) (Streptococcus sp.) | MIC Streptococcus agalactiae (GC 4564) (Streptococcus sp.) | MIC Streptococcus pneumoniae (GC 4565) (Streptococcus sp.)
16 µg/mL: MIC Escherichia coli (GC 4560) (Escherichia coli; strain GC 4560, 18 hours at 35° C.)
1 µg/mL: MIC Enterococcus faecalis (GC 4553) (Enterococcus sp.; inoculum 5×10^5 CFU/mL) | MIC Enterococcus faecalis (GC 4553) (Enterococcus sp.) | MIC Coagulase Negative Staphylococcus (GC 4549) (Staphylococcus sp.; strain GC 4549)
8 µg/mL: MIC Staphylococcus haemolyticus (GC 4546) (Staphylococcus sp.; strain GC 4546) | MIC Coagulase Negative Staphylococcus (GC 4547) (Staphylococcus sp.; strain GC 4547)
>64 µg/mL: MIC Escherichia coli (ATCC 25922) (Escherichia coli; strain ATCC 25922, 18 hours at 35° C.) | MIC Escherichia coli (GC 4559) (Escherichia coli; strain GC 4559, 18 hours at 35° C.)
